Reference: patent EP0902002A1, “New derivatives of phthalaldehyde, process for their preparation and their use” (Hoechst Marion Roussel Deutschland GmbH, priority 1997, dated 1999)

Assay: Physicochemical properties: solubility and pH stability

Löslichkeit (in Alkoholen und anderen polaren organischen Lösungsmitteln): lösliche | Stabilität (in neutralem und mild saurem Milieu (vorzugsweise > pH 2)): stabil | Stabilität (in stark alkalischer Lösung (beispielsweise > pH 8)): unbeständig
SMILES: CC(CCc1c(O)cc(C=O)c(C=O)c1O)C(=O)O (stereo not drawn) [Hericenal C]
